Legend:
Assay in all cases: relative viability (nuclei count vs DMSO), 5 days (fraction); higher = more cells survive
[1] = test system: 201T
How it was run: (§1)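 Medians of duplicate plates are given as relative viability. That measure is the nuclei count in treated wells divided by the count in vehicle wells. Counts were taken on 4× images of lung cancer cell lines in 1536-well plates, 5 days after pin-tool dosing the day after seeding with one drug alone or a fixed anchor-drug dose plus five library-drug doses (not always all listed) in √10 steps.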

[2] = test system: BEN
How it was run: as §1

[3] = test system: CAL-12T
How it was run: as §1

[4] = test system: HCC-827
How it was run: as §1

[5] = test system: HOP-62
How it was run: as §1

[6] = test system: LCLC-103H
How it was run: as §1

[7] = test system: LCLC-97TM1
How it was run: as §1

[8] = test system: LXF-289
How it was run: as §1

[9] = test system: NCI-H1355
How it was run: as §1

[10] = test system: NCI-H1395
How it was run: as §1

[11] = test system: NCI-H1437
How it was run: as §1

[12] = test system: NCI-H1650
How it was run: as §1

[13] = test system: NCI-H1793
How it was run: as §1

[14] = test system: NCI-H2023
How it was run: as §1

[15] = test system: NCI-H2087
How it was run: as §1

[16] = test system: NCI-H2228
How it was run: as §1

[17] = test system: NCI-H2405
How it was run: as §1

[18] = test system: NCI-H3122
How it was run: as §1

[19] = test system: NCI-H322M
How it was run: as §1

[20] = test system: NCI-H647
How it was run: as §1

[21] = test system: NCI-H727
How it was run: as §1

[22] = test system: RERF-LC-KJ
How it was run: as §1

[23] = test system: SK-LU-1
How it was run: as §1

`Clc1ccc(Nc2nnc(Cc3ccncc3)c3ccccc23)cc1` [Vatalanib] + COc1cc2c(Oc3ccc(NC(=O)C4(C(=O)Nc5ccc(F)cc5)CC4)cc3F)ccnc2cc1OCCCN1CCOCC1 [Foretinib] (partner 0.25 µM) gave a relative viability ([1]; first compound 0.04 µM) of 1.17, a relative viability ([1]; first compound 0.1265 µM) of 0.976 and a relative viability ([1]; first compound 0.4 µM) of 1.16. For the same molecule, the relative viability ([1]; first compound 1.265 µM) was 1.09, the relative viability ([1]; first compound 4 µM) was 0.984 and the relative viability ([2]; first compound 0.04 µM) was 0.705. The relative viability ([2]; first compound 0.1265 µM) was 0.526, the relative viability ([2]; first compound 0.4 µM) was 0.845 and the relative viability ([2]; first compound 1.265 µM) was 0.511. For the same molecule, the relative viability ([2]; first compound 4 µM) was 0.696, the relative viability ([3]; first compound 0.04 µM) was 1.07 and the relative viability ([3]; first compound 0.1265 µM) was 1.16. It also gave a relative viability ([3]; first compound 0.4 µM) of 1.05, a relative viability ([3]; first compound 1.265 µM) of 1.04 and a relative viability ([3]; first compound 4 µM) of 1.05. The relative viability ([4]; first compound 0.04 µM) was 1.07, the relative viability ([4]; first compound 0.1265 µM) was 1.09 and the relative viability ([4]; first compound 0.4 µM) was 0.942. The relative viability ([4]; first compound 1.265 µM) was 0.927, the relative viability ([4]; first compound 4 µM) was 1.03 and the relative viability ([5]; first compound 0.04 µM) was 1.16. The relative viability ([5]; first compound 0.1265 µM) was 1.07, the relative viability ([5]; first compound 0.4 µM) was 1.13 and the relative viability ([5]; first compound 1.265 µM) was 1.01. The relative viability ([5]; first compound 4 µM) was 1.12, the relative viability ([6]; first compound 0.04 µM) was 0.829 and the relative viability ([6]; first compound 0.1265 µM) was 0.705. It also gave a relative viability ([6]; first compound 0.4 µM) of 0.752, a relative viability ([6]; first compound 1.265 µM) of 0.739 and a relative viability ([6]; first compound 4 µM) of 0.756. It also gave a relative viability ([7]; first compound 0.04 µM) of 0.975, a relative viability ([7]; first compound 0.1265 µM) of 0.833 and a relative viability ([7]; first compound 0.4 µM) of 1.01. It also gave a relative viability ([7]; first compound 1.265 µM) of 0.949, a relative viability ([7]; first compound 4 µM) of 0.835 and a relative viability ([8]; first compound 0.04 µM) of 0.97. It also gave a relative viability ([8]; first compound 0.1265 µM) of 0.966, a relative viability ([8]; first compound 0.4 µM) of 0.98 and a relative viability ([8]; first compound 1.265 µM) of 0.945. The relative viability ([8]; first compound 4 µM) was 0.931, the relative viability ([9]; first compound 0.04 µM) was 1.01 and the relative viability ([9]; first compound 0.1265 µM) was 1.01. The relative viability ([9]; first compound 0.4 µM) was 1.02, the relative viability ([9]; first compound 1.265 µM) was 0.847 and the relative viability ([9]; first compound 4 µM) was 0.971. The relative viability ([10]; first compound 0.04 µM) was 0.994, the relative viability ([10]; first compound 0.1265 µM) was 1.1 and the relative viability ([10]; first compound 0.4 µM) was 1.08. For the same molecule, the relative viability ([10]; first compound 1.265 µM) was 0.938, the relative viability ([10]; first compound 4 µM) was 1.02 and the relative viability ([11]; first compound 0.04 µM) was 1.25. The relative viability ([11]; first compound 0.1265 µM) was 1.27, the relative viability ([11]; first compound 0.4 µM) was 1.4 and the relative viability ([11]; first compound 1.265 µM) was 1.21. The relative viability ([11]; first compound 4 µM) was 1.26, the relative viability ([12]; first compound 0.04 µM) was 1.22 and the relative viability ([12]; first compound 0.1265 µM) was 1.05. The relative viability ([12]; first compound 0.4 µM) was 0.89, the relative viability ([12]; first compound 1.265 µM) was 1 and the relative viability ([12]; first compound 4 µM) was 1.27. It also gave a relative viability ([13]; first compound 0.04 µM) of 0.769, a relative viability ([13]; first compound 0.1265 µM) of 0.787 and a relative viability ([13]; first compound 0.4 µM) of 0.686. It also gave a relative viability ([13]; first compound 1.265 µM) of 0.663, a relative viability ([13]; first compound 4 µM) of 0.608 and a relative viability ([14]; first compound 0.04 µM) of 0.881. It also gave a relative viability ([14]; first compound 0.1265 µM) of 0.974, a relative viability ([14]; first compound 0.4 µM) of 1.04 and a relative viability ([14]; first compound 1.265 µM) of 0.753. For the same molecule, the relative viability ([14]; first compound 4 µM) was 1.04, the relative viability ([15]; first compound 0.04 µM) was 1.15 and the relative viability ([15]; first compound 0.1265 µM) was 1.08. The relative viability ([15]; first compound 0.4 µM) was 1.27, the relative viability ([15]; first compound 1.265 µM) was 0.958 and the relative viability ([15]; first compound 4 µM) was 1.03. It also gave a relative viability ([16]; first compound 0.04 µM) of 0.941, a relative viability ([16]; first compound 0.1265 µM) of 0.928 and a relative viability ([16]; first compound 0.4 µM) of 0.968. The relative viability ([16]; first compound 1.265 µM) was 0.946, the relative viability ([16]; first compound 4 µM) was 0.778 and the relative viability ([17]; first compound 0.04 µM) was 1.04. The relative viability ([17]; first compound 0.1265 µM) was 1.06, the relative viability ([17]; first compound 1.265 µM) was 1.02 and the relative viability ([17]; first compound 4 µM) was 0.965. The relative viability ([18]; first compound 0.04 µM) was 0.997, the relative viability ([18]; first compound 0.1265 µM) was 0.978 and the relative viability ([18]; first compound 0.4 µM) was 0.939. The relative viability ([18]; first compound 1.265 µM) was 0.897, the relative viability ([18]; first compound 4 µM) was 0.954 and the relative viability ([19]; first compound 0.04 µM) was 1. It also gave a relative viability ([19]; first compound 0.1265 µM) of 0.974, a relative viability ([19]; first compound 0.4 µM) of 1.03 and a relative viability ([19]; first compound 1.265 µM) of 0.878. It also gave a relative viability ([19]; first compound 4 µM) of 0.896, a relative viability ([20]; first compound 0.04 µM) of 1.12 and a relative viability ([20]; first compound 0.1265 µM) of 1.2. It also gave a relative viability ([20]; first compound 0.4 µM) of 1.28, a relative viability ([20]; first compound 1.265 µM) of 1.18 and a relative viability ([20]; first compound 4 µM) of 1.1. It also gave a relative viability ([21]; first compound 0.04 µM) of 0.901, a relative viability ([21]; first compound 0.1265 µM) of 0.724 and a relative viability ([21]; first compound 0.4 µM) of 0.703. For the same molecule, the relative viability ([21]; first compound 1.265 µM) was 0.572, the relative viability ([21]; first compound 4 µM) was 0.925 and the relative viability ([22]; first compound 0.04 µM) was 0.889. The relative viability ([22]; first compound 0.1265 µM) was 0.927, the relative viability ([22]; first compound 0.4 µM) was 0.925 and the relative viability ([22]; first compound 1.265 µM) was 0.89. The relative viability ([22]; first compound 4 µM) was 0.766, the relative viability ([23]; first compound 0.04 µM) was 0.807 and the relative viability ([23]; first compound 0.1265 µM) was 0.741. It also gave a relative viability ([23]; first compound 0.4 µM) of 0.979, a relative viability ([23]; first compound 1.265 µM) of 0.877 and a relative viability ([23]; first compound 4 µM) of 0.809.
